pIC50: −log10 of the molar value. Calls of active or inactive are those of the source. No cut-off for these calls is given here.
Experiments:
MDA-MB-231 = experiment: Growth inhibition of human MDA-MB-231 cells at 10 uM after 72 hrs by MTT assay; assay type: functional; details: MDA-MB-231, 72 h
MCF7 = experiment: Growth inhibition of human MCF7 cells at 10 uM after 72 hrs by MTT assay; assay type: functional; details: MCF7, 72 h
Calf thymus DNA = experiment: Binding affinity to calf thymus DNA assessed as change in melting temperature at [compound]/[polynucleotide] ratio of 1; assay type: nucleic-acid assay; details: Bos taurus
Nucleic Acid = experiment: Binding affinity to poly(dAT)2 assessed as change in melting temperature at [compound]/[polynucleotide] ratio of 1 at pH 7.1; assay type: nucleic-acid assay
HL-60 [1] = experiment: Cytotoxicity against human HL60 cells after 72 hrs; assay type: functional, cell-based; details: HL-60, 72 h
HL-60 [2] = experiment: Cytotoxicity against human mitoxantrone-resistant HL60 cells after 72 hrs; assay type: functional, cell-based; details: HL-60, 72 h
[3] = biological target: DNA topoisomerase 2-alpha (Homo sapiens) (UniProt P11388); experiment: Inhibition of human topoisomerase 2-mediated DNA cleavage
Sequence of DNA topoisomerase 2-alpha (Homo sapiens) (P11388 whole entry): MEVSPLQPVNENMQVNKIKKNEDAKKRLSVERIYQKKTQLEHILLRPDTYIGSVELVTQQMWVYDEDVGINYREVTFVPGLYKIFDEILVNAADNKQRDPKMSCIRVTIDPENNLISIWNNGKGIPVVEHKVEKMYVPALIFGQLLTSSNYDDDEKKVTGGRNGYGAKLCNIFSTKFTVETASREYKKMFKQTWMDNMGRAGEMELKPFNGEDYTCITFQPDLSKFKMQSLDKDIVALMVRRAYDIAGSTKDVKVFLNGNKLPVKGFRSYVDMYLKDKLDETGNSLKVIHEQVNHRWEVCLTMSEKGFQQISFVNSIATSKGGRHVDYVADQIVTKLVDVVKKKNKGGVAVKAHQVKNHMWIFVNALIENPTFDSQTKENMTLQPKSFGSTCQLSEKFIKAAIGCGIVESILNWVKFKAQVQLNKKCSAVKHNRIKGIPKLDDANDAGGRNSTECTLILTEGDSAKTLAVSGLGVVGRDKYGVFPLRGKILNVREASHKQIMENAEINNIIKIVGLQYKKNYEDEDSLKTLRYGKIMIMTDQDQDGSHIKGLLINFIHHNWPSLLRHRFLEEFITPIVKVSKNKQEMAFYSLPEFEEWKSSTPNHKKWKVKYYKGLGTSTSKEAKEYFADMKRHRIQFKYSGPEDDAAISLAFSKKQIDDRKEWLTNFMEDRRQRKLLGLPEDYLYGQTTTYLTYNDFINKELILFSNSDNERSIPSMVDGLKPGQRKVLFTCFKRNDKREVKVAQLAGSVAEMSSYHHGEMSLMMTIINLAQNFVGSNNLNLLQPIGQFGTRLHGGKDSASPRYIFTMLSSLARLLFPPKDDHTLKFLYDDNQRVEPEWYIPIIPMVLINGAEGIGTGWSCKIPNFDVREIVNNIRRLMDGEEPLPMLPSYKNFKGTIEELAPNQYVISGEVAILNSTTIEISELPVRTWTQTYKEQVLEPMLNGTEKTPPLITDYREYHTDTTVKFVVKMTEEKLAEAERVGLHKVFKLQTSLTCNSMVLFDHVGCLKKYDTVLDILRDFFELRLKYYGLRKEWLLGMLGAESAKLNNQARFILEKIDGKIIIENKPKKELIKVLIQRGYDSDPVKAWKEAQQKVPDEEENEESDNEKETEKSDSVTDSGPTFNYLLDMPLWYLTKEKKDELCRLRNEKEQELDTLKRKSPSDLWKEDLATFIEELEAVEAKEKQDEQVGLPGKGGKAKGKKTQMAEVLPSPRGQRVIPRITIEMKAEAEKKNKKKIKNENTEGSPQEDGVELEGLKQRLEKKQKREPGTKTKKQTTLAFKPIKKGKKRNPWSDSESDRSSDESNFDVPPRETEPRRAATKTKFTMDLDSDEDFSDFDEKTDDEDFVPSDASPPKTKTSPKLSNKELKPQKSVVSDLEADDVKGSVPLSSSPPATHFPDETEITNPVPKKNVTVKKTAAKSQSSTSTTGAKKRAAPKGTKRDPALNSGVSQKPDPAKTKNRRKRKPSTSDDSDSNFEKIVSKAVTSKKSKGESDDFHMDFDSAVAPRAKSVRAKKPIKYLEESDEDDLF

N#Cc1nc2ccc3c(nnn3-c3ccncc3)c2s1
inhibition at 10 µM (MDA-MB-231): 87.4%
inhibition at 10 µM (MCF7): 95.5%

CC(=O)Nc1ccc2c(c1)-c1cccc3nccc(c13)N2
ΔTm (Calf thymus DNA): 14.5 °C
ΔTm (Nucleic Acid): 24.5 °C
pIC50 (HL-60 [1]): 5.34
pIC50 (HL-60 [2]): 5.26

c1ccc2c(c1)ncc1c2[nH]c2ccc3ncsc3c21
ΔTm (Calf thymus DNA): 7.2 °C
ΔTm (Nucleic Acid): 12.7 °C
pIC50 (HL-60 [1]): 4.76
pIC50 (HL-60 [2]): 4.65

c1ccc2nc(-n3nnc4c5sc(C6=NCCN6)nc5ccc43)ccc2c1
inhibition at 10 µM (MDA-MB-231): 28.5%
inhibition at 10 µM (MCF7): 41.3%

N#Cc1nc2ccc3c(nnn3-c3ccnc4ccccc34)c2s1
inhibition at 10 µM (MDA-MB-231): 32.4%
inhibition at 10 µM (MCF7): 34.9%

N#Cc1nc2ccc3c(nnn3-c3ccc4ccccc4n3)c2s1
inhibition at 10 µM (MDA-MB-231): 19.8%
inhibition at 10 µM (MCF7): 30.4%

c1cc(-n2nnc3c4sc(C5=NCCN5)nc4ccc32)ccn1
inhibition at 10 µM (MDA-MB-231): 56.4%
inhibition at 10 µM (MCF7): 51.1%

CC[C@@]1(O)C(=O)OCc2c1cc1n(c2=O)Cc2cc3ccccc3nc2-1
inhibition [3]: inactive

Cc1cc(-n2nnc3c4sc(C5=NCCN5)nc4ccc32)c2ccccc2n1
inhibition at 10 µM (MDA-MB-231): 97.4%
inhibition at 10 µM (MCF7): 98.9%

Cc1cc(-n2nnc3c4sc(C#N)nc4ccc32)c2ccccc2n1
inhibition at 10 µM (MDA-MB-231): 91.9%
inhibition at 10 µM (MCF7): 87.2%

c1ccc2c(-n3nnc4c5sc(C6=NCCN6)nc5ccc43)ccnc2c1
inhibition at 10 µM (MDA-MB-231): 97.3%
inhibition at 10 µM (MCF7): 95.6%

Nc1ccc2[nH]c3c4ccccc4ncc3c2c1
inhibition at 10 µM (MDA-MB-231): 85.7%
inhibition at 10 µM (MCF7): 73.5%
